Source: patent US20040029965A1, “Formulations for reducing or eliminating toxicity of enviromental hormones containing ursodeoxycholic acid” (priority 2000, published 2004)

What was measured:
Format in all cases: in vivo
C57B1/6J mice [1] = assay: Organ weights (liver, kidneys, testes, epididymides) of mice after a single subcutaneous injection of TCDD
Protocol: Male C57B1/6J mice of 5 weeks old having the average weight of 18-22 g which had been bred in CRJ (Charles River in Japan) were purchased and used in this example as experimental animals. Those mice were acclimated under the constant breeding condition, i.e. the temperature of 24±1° C., the humidity of 60±10% and the light and darkness cycle of 12 hours, for one week and thereafter, utilized in the experiment.
(§1) 2,3,7,8-tetrachlorodibenzo-p-dioxin (TCDD) dissolved in toluene (purity of 95% or more as a result of gas chromatography analysis), manufactured by Chem. Services Inc. in USA, was volatilized with nitrogen to obtain powder. The obtained powder was dissolved in a mixed solvent containing acetone and corn oil with a volume ratio of 1:6. The resulting solution each containing 110, 27.5 and 6.9 μg/kg of TCDD was subcutaneously injected to mice at a volume of 5 ml per body weight. […] The mice were supplied with the feed from 10 days before (pre-administration) to 60 days after administration of TCDD (post-administration).
(§2) Upon completion of the experiment for 60 days, the experimental animals were fasted for 24 hours and anesthetized with ether. Then, they were abdominally incised and blood was gathered from abdominal vena cava. They were sacrificed by the release of blood. Liver, kidneys, testes and epididymides were extracted and all the extracted organs were weighed. Only the testes were separately kept and observed under optical and electron microscopes. For biochemical finding test, serum was separated from blood with a centrifuge and the separated serum was analyzed with an automated blood biochemical analyzer, Dimension (Dupont, USA). Blood was put to another blood gathering bottle and then, analyzed with an automated blood cell analyzer, Celldyn (Abbott, USA).
The results are expressed as Mean±Standard Deviation values. For statistical analysis of the body weight, feed and water uptake, biochemical findings, hematological findings and the weight of organ in an acute toxicity test, verification was performed by one way analysis of variance (ANOVA) in case of equal distribution. In case significance was recognized in ANOVA, the Student's t-test was performed in the levels of p<0.05 and p<0.01.
The organs, i.e. liver, kidneys, testes and epididymides, were weighed and the results are shown in the following.

[2] = system: Ovariectomized female B6C3F1 mice; assay: Uterus weight changes by bisphenol A (uterine proliferation); conditions: UDCA 2 mg/day alone, s.c. for 4 days
Protocol: Ovariectomized female B6C3F1 mice of 5 weeks old, the average weight of which was 18 to 22 g and had been bred in CRJ, were purchased. They were acclimated under the constant breeding conditions, i.e. the constant temperature of 24±1° C., the humidity of 60±10% and the light and darkness cycle of 12 hours, for one week and then, utilized in the experiment. The animals were supplied with solid feed purchased from Purina and supplied with water ad libitum. After acclimation, test materials dissolved in corn oil were subcutaneously injected once a day for 4 days. The test materials used herein, stock solutions of bisphenol A and UDCA were prepared using ethanol. 2 mg of bisphenol A dissolved in 0.2 ml of corn oil was administered to the mice alone or in combination with UDCA once a day. The administration dose of UDCA was 0.2 or 2.0 mg, and corn oil was administered to the solvent control.
The results are expressed as Mean±Standard Deviation values. ANOVA was performed to evaluate the mean distribution of administered groups. In case that the significance was recognized in ANOVA, the Student's t-test was carried out in the levels of p<0.05 and p<0.01.

C57B1/6J mice [3] = assay: Optical microscopy of testes (histopathological findings)
Protocol: as §1, §2
The extracted testes were fixed in 10% neutralized formalin buffer for 24 hours and washed with the flowing water. It was subsequently dehydrated with ethanol and cleared with xylene and then, embedded with paraffin. It was sectioned with microtome (microm is HM 440E) to a thickness of 2-3 μm and then, double stained with hematoxylin and eosin to observe under an optical microscope.

[4] = TCDD 27.5 μg/kg + UDCA 0.25 wt %
[5] = TCDD 27.5 μg/kg + UDCA 0.5 wt %
[6] = TCDD 110.0 μg/kg + UDCA 0.125 wt %
[7] = TCDD 110.0 μg/kg + UDCA 0.25 wt %
[8] = TCDD 110.0 μg/kg + UDCA 0.5 wt %

## C[C@H](CCC(=O)O)[C@H]1CC[C@H]2[C@@H]3[C@@H](O)C[C@@H]4C[C@H](O)CC[C@]4(C)[C@H]3CC[C@]12C [UDCA, 3α, 7β-dihydroxy-5β-cholanoic acid]
C57B1/6J mice [1]; [4]
  Left epididymis Weight: 0.029 ± 0.003 g
  Left kidney Relative weight: 0.508 ± 0.038 %
  Left kidney Weight: 0.125 ± 0.010 g
  Left testis Relative weight: 0.293 ± 0.032 %
  Left testis Weight: 0.072 ± 0.007 g
  Liver Relative weight: 4.428 ± 0.198%
  Liver Weight: 1.088 ± 0.030 g
  Right epididymis Relative weight: 0.124 ± 0.020%
  Right epididymis Weight: 0.030 ± 0.005 g
  Right kidney Relative weight: 0.508 ± 0.029 %
  Right kidney Weight: 0.125 ± 0.007 g
  Right testis Relative weight: 0.290 ± 0.030 %
  Right testis Weight: 0.071 ± 0.007 g
C57B1/6J mice [1]; [5]
  Left epididymis Relative weight: 0.115 ± 0.015%
  Left epididymis Weight: 0.025 ± 0.004 g
  Left kidney Relative weight: 0.539 ± 0.040 %
  Left kidney Weight: 0.119 ± 0.011 g
  Left testis Relative weight: 0.304 ± 0.040 %
  Left testis Weight: 0.067 ± 0.011 g
  Liver Relative weight: 4.773 ± 0.250%
  Liver Weight: 1.057 ± 0.069 g
  Right epididymis Relative weight: 0.132 ± 0.041%
  Right epididymis Weight: 0.029 ± 0.011 g
  Right kidney Relative weight: 0.538 ± 0.045 %
  Right kidney Weight: 0.119 ± 0.009 g
  Right testis Relative weight: 0.301 ± 0.030 %
  Right testis Weight: 0.067 ± 0.007 g
C57B1/6J mice [1]; [6]
  Liver Relative weight: 5.118%
  Liver Weight: 0.8153 g
C57B1/6J mice [1]; [7]
  Left epididymis Relative weight: 0.122%
  Left epididymis Weight: 0.0195 g
  Left kidney Relative weight: 0.6711%
  Left kidney Weight: 0.1069 g
  Left testis Relative weight: 0.2153%
  Left testis Weight: 0.343 g
  Liver Relative weight: 8.600 ± 3.276%
  Liver Weight: 1.379 ± 0.327 g
  Right epididymis Relative weight: 0.080%
  Right epididymis Weight: 0.0128 g
  Right kidney Relative weight: 0.6045%
  Right kidney Weight: 0.0963 g
  Right testis Relative weight: 0.2279%
C57B1/6J mice [1]; [8]
  Left epididymis Relative weight: 0.114 ± 0.025%
  Left epididymis Weight: 0.021 ± 0.007 g
  Left kidney Relative weight: 0.704 ± 0.199%
  Left kidney Weight: 0.121 ± 0.022 g
  Left testis Relative weight: 0.316 ± 0.074%
  Left testis Weight: 0.057 ± 0.019 g
  Right epididymis Relative weight: 0.127 ± 0.024%
  Right epididymis Weight: 0.024 ± 0.009 g
  Right kidney Relative weight: 0.659 ± 0.133%
  Right kidney Weight: 0.113 ± 0.010 g
  Right testis Relative weight: 0.314 ± 0.067%
  Right testis Weight: 0.057 ± 0.019 g
[2]
  Mean weight of uterus ± SD: 6.96 ± 1.34
C57B1/6J mice [3]; TCDD 27.5 μg/kg + 0.5% by weight of UDCA, FIG. 3
  seminiferous tubules, optical microphotograph: normal seminiferous tubules were observed
C57B1/6J mice [3]; group exposed to UDCA (with TCDD)
  histopathological findings of testes under an optical microscope: seminiferous tubules were found to have the similar shape to that of the solvent control
